Data on 41 compounds can be found in the Deep4Chem optical property database.

The data set is described as follows: solvent given as SMILES.
The mark [1] stands for this setting: in c1ccc2c(c1)c1ccccc1n2-c1ccc(-c2ccc(-n3c4ccccc4c4ccccc43)cc2)cc1.

“And” between values parts separate entries of the source, which are not always exact repeats. Identical values can stand only once.

Take `CCn1c2sccc2c2c3nsnc3c3c4ccsc4n(CC)c3c21`: the fluorescence lifetime amounted to 15 ns (in C1CCOC1); 15.6 ns (in CCOC(C)=O); 16.8 ns (in CN(C)C=O); 13 ns (in Cc1ccccc1); 14.6 ns (in ClCCl).
`Nc1ccc(/C=C/c2ccc3ccccc3c2)cc1`: the fluorescence lifetime runs as follows: (in CC#N) 0.23 ns; (in CCCCCC) 0.2 ns.
`CC1(C)OB(c2cc3ccc4cccc5ccc(c2)c3c45)OC1(C)C` registered a fluorescence lifetime (in Cc1ccccc1) of 82 ns.
For `CN(C)/C=N\c1ccc2c3c(cccc13)C(=O)c1ccccc1-2`, the fluorescence lifetime (in ClC(Cl)Cl) stood at 7.96 ns.
Consider `CCCCc1cc2cccc[n+]2[b-]2ccc(-c3cc[b-]4c(c3)c(CCCC)cc3cccc[n+]43)cc21`, for which the fluorescence lifetime (in C1CCCCC1) turned out to be 3.5 ns.
Under “in C1CCOC1”, `Cc1ccc(-c2ccc(-c3ccc(-c4ccc(-c5ccc(C)cc5)cc4)c(/C(=C(/c4ccccc4)c4cc(-c5ccc(-c6ccc(C)cc6)cc5)ccc4-c4ccc(-c5ccc(C)cc5)cc4)c4ccccc4)c3)cc2)cc1` gave a fluorescence lifetime of 8.5 ns.
`Cc1nc2c(ccc3ccccc32)oc1=O` registered a fluorescence lifetime (in c1ccccc1) of 1.5 ns.
Take `C1=Cc2nc1c(-c1cccs1)c1ccc([nH]1)c(-c1cccs1)c1nc(c(-c3cccs3)c3ccc([nH]3)c2-c2cccs2)C=C1`: the fluorescence lifetime is, setting by setting: (in CN(C)C=O) 2.09 ns; (in ClCCl) 9.27 ns.
On to `Cn1nc(-c2ccccc2)c2nc3cc(F)ccc3nc21`, for which the fluorescence lifetime is 23 ns (in C1CCCCC1), 23 ns (in C1CCOC1) and 10.1 ns (in CC#N).
Consider `CN(C)c1ccc(/C=C/c2ccc(-c3nc(C#N)c(C#N)n3C)cc2)cc1`, for which the fluorescence lifetime is, setting by setting: (in C1CCCCC1) 0.7 ns; (in ClC(Cl)Cl) 0.7 ns.
Take `CCCCC(CC)COc1ccc2nc(-c3ccc(-c4c(C)noc4C)s3)sc2c1` (stereo not given): the fluorescence lifetime (in ClCCl) was determined as 1.8 ns.
Consider `c1cc2cc(c1)c1ccc3ccc4ccc(cc4c3c1)c1ccc3ccc4ccc(cc4c3c1)c1cccc2c1`, for which the fluorescence lifetime (in Cc1ccccc1) is 4.7 ns.
As for `C#CCNC1=C2C=C(c3cc4n(c3)[B-](F)(F)[N+]3=CC=CC3=C4c3c(C)cc(C)cc3C)C(C)=[N+]2[B-](F)(F)n2c(C)ccc21`, the fluorescence lifetime worked out at 2.3 ns (in C1CCCCC1) and 0.58 ns (in CCOC(C)=O).
Compound `CC1(C)C(/C=C/C=C/C=C/C=C2/N(CCCCS(=O)(=O)[O-])c3ccc4ccccc4c3C2(C)C)=[N+](CCCCS(=O)(=O)[O-])c2ccc3ccccc3c21` returned a fluorescence lifetime (in CC(C)=O) of 0.87 ns; a fluorescence lifetime (in CCO) of 0.62 ns; a fluorescence lifetime (in CO) of 0.51 ns; a fluorescence lifetime (in CS(C)=O) of 0.97 ns; a fluorescence lifetime (in ClC(Cl)Cl) of 1.14 ns; a fluorescence lifetime (in ClCCl) of 0.91 ns. Also, under “in O”, the fluorescence lifetime amounted to 0.17 ns.
For `O=C1/C(=C2\Sc3ccc(S(=O)(=O)Cl)cc3C2=O)Sc2ccc(S(=O)(=O)Cl)cc21`, the fluorescence lifetime by setting is: (in C1COCCO1) 12 ns; (in CS(C)=O) 0.17 ns.
With `CN(C)c1ccc(/C=C2\CC/C(=C\c3ccc(N(C)C)cc3)C2=O)cc1`, the fluorescence lifetime is, setting by setting: (in C1CCOC1) 0.6 ns; (in C1COCCO1) 0.5 ns; (in CC#N) 0.54 ns; (in CC(C)=O) 0.74 ns; (in CC(C)O) 0.68 ns; (in CCO) 0.34 ns. Also, the fluorescence lifetime is 0.59 ns (in CCOC(C)=O); 0.92 ns (in CN(C)C=O); 0.29 ns (in CO); 0.85 ns (in CS(C)=O); 0.48 ns (in Cc1ccccc1); 0.37 ns (in ClC(Cl)(Cl)Cl). Also, the fluorescence lifetime (in ClC(Cl)Cl) is 0.57 ns, the fluorescence lifetime (in ClCCl) worked out at 0.77 ns and the fluorescence lifetime (in S=C=S) was found to be 0.51 ns.
For the compound `Cc1ccc(-c2ccc(/C=C/c3ccc(Br)n3C)cn2)nc1`, where the note is “in CC#N”, the fluorescence lifetime stood at 0.66 ns.
Regarding `Cc1cc(=O)[nH]c(=O)[nH]1`, the fluorescence lifetime (in CC#N) was found to be 0.0001 ns.
For the compound `CCN(CC)c1ccc2c(c1)oc(=O)c1c(-c3ccccc3C(=O)O)c3ccc(=[N+](CC)CC)cc-3oc12`, the fluorescence lifetime is, setting by setting: (in CCO) 2.29 ns; (in ClC(Cl)Cl) 4.16 ns; (in O) 0.31 ns.
As for `CC(C)(C)c1ccc2c(c1)c1cc(C(C)(C)C)ccc1n2-c1ccc(-c2ccc3c(c2)C(=O)c2ccc(-c4ccc(-n5c6ccc(C(C)(C)C)cc6c6cc(C(C)(C)C)ccc65)cc4)cc2C3=O)cc1`, the fluorescence lifetime (in Cc1ccccc1) was 12.6 ns and the fluorescence lifetime under setting [1] turned out to be 33 ns.
On to `c1ccc2c(c1)CCc1c-2cnc2c1-c1ccccc1CC2`, for which the fluorescence lifetime amounted to 3.33 ns (in C1CCOC1); 3.66 ns (in CC#N); 3.14 ns (in CCCCCC); 3.46 ns (in CCOC(C)=O); 3.96 ns (in CO); 3.88 ns (in CS(C)=O). Further, the fluorescence lifetime is, setting by setting: (in Cc1ccccc1) 3.24 ns; (in ClCCl) 3.67 ns.
For `COc1cc(OC)c(C2=C3C(C)=CC(C)=[N+]3[B-](F)(F)n3c(C)cc(C)c32)c(OC)c1`, the fluorescence lifetime runs as follows: (in C1CCOC1) 5.7 ns; (in CCCCCC) 6.35 ns.
`NS(=O)(=O)c1ccc(N2N=C(c3ccc(O)cc3)CC2c2ccc(Cl)cc2)cc1` (stereo not given): the fluorescence lifetime is 2.32 ns (in C1CCOC1); 2.29 ns (in C1COCCO1); 2.29 ns (in CC#N); 2 ns (in CC(C)O); 1.88 ns (in CCO); 2.34 ns (in CCOC(C)=O). In addition, the fluorescence lifetime (in CN(C)C=O) was 2.35 ns, the fluorescence lifetime (in CO) stood at 1.68 ns, the fluorescence lifetime (in CS(C)=O) was found to be 2.49 ns and the fluorescence lifetime (in O) worked out at 3.2 ns.
`CCN(CC)c1ccc(C=Cc2nc3nc4ccccc4nc3s2)cc1`: the fluorescence lifetime was found to be 0.991 ns (in CCCCCCC(C)O); 1.36 ns (in CCOC(C)=O); 0.05 ns (in CO); 0.42 ns (in CS(C)=O); 0.27 ns (in Cc1ccccc1); 1.31 ns (in ClC(Cl)Cl). The compound further yielded a fluorescence lifetime (in ClCCl) of 1.62 ns.
As for `COc1ccc2c(=O)c3c([nH]c2c1)-c1cc(Cl)ccc1NC3(C)C`, the fluorescence lifetime is, setting by setting: (in C1CCOC1) 8.91 ns; (in CC#N) 9.32 ns; (in CCCCO) 9.93 ns; (in CCCO) 9.91 ns; (in CCO) 9.44 ns; (in CCOC(C)=O) 8.48 ns. The same compound registered a fluorescence lifetime (in CN(C)C=O) of 10.4 ns; a fluorescence lifetime (in CO) of 9.17 ns; a fluorescence lifetime (in CS(C)=O) of 11.2 ns; a fluorescence lifetime (in Cc1ccccc1) of 7.94 ns; a fluorescence lifetime (in ClC(Cl)(Cl)Cl) of 5.41 ns; a fluorescence lifetime (in ClCCl) of 9.85 ns. The compound further yielded a fluorescence lifetime (in O) of 6.93 ns and a fluorescence lifetime (in c1ccccc1) of 8.01 ns.
For `COc1cccc2cc(C#N)c(=N)oc12`, the fluorescence lifetime (in ClCCl) came to 0.4 ns.
Consider `N#C/C(=C\c1ccc([N+](=O)[O-])cc1)c1nc(-c2ccccc2)cs1`, for which the fluorescence lifetime (in CC#N) came to 2.85 ns.
`COc1cc2c(cc1-c1ccccc1)Cc1c3c(c4c(c1-2)-c1cc(OC)c(-c2ccccc2)cc1C4)C(=O)N(CCC(C)C)C3=O`: the fluorescence lifetime is 3.87 ns (in C1CCOC1); 6.33 ns (in CC#N); 5.36 ns (in CC(C)=O); 3.99 ns (in CCOC(C)=O); 6.41 ns (in CS(C)=O); 2.55 ns (in Cc1ccccc1). The fluorescence lifetime reads like this: (in ClC(Cl)Cl) 5.95 ns; (in ClCCl) 5.64 ns.
As to `CCC(CC)COC1=CC2=C3c4cc(OCC(CC)CC)c(-c5ccccc5)n4[B-](F)(F)[n+]4nnn(c43)[B-](F)(F)[N+]2=C1c1ccccc1`, the fluorescence lifetime amounted to 1.01 ns (in C1CCOC1) and 0.95 ns (in ClCCl).
`CCCCOc1ccc(/C=C/C=C/C=C/c2ccc([N+](=O)[O-])cc2)cc1`: for the setting “in Cc1ccccc1”, the fluorescence lifetime was determined as 1.7 ns.
`CN(C)c1ccc(-c2cc(-c3cccs3)nc(-c3ccccc3)n2)cc1`: where the note is “in ClC(Cl)Cl”, the fluorescence lifetime was determined as 7 ns.
As to `COc1ccc(-c2nnc(-c3cc(-c4nnc(-c5ccc(OC)cc5)o4)c(-n4c5ccccc5c5ccccc54)cc3-n3c4ccccc4c4ccccc43)o2)cc1`, the fluorescence lifetime (in Cc1ccccc1) is 5.1 ns and the fluorescence lifetime (in O=P(c1ccccc1)(c1ccccc1)c1ccccc1Oc1ccccc1P(=O)(c1ccccc1)c1ccccc1) is 7.3 ns.
As to `O=C1c2ccc3c4ccc5c6c(ccc(c7ccc(c2c37)C(=O)N1c1ccc(O)cc1)c64)C(=O)N(c1ccc(O)cc1)C5=O`, the fluorescence lifetime is 1.6 ns (in C1CCOC1); 0.2 ns (in CN1CCCC1=O); 2.2 ns and 3.9 ns (in CN(C)C=O).
In the case of `Cc1cc(C)c(B(c2ccccc2N2c3ccccc3Oc3ccccc32)c2c(C)cc(C)cc2C)c(C)c1`, under “in Cc1ccccc1”, the fluorescence lifetime was 62 ns.
On to `O=P1(c2ccccc2)c2ccc(N3c4ccccc4Oc4ccccc43)cc2-c2cc(N3c4ccccc4Oc4ccccc43)ccc21`, for which the fluorescence lifetime under setting [1] was 35.1 ns.
On to `C(#Cc1ccccc1)C(C#Cc1ccccc1)=Cc1cccc(C=C(C#Cc2ccccc2)C#Cc2ccccc2)c1`, for which the fluorescence lifetime (in ClC(Cl)Cl) was 0.3 ns.
Same read-out and setting: under `O=Cc1ccc(C#CC(C#Cc2ccc(C=O)s2)=Cc2ccc(C=C(C#Cc3ccc(C=O)s3)C#Cc3ccc(C=O)s3)s2)s1` stands 0.5 ns.
On to `c1ccc(-c2nc(-c3ccccc3)nc(-c3ccc(-n4c5ccc(-n6c7ccccc7c7ccccc76)cc5c5cc(-n6c7ccccc7c7ccccc76)ccc54)cc3)n2)cc1`, for which, where the note is “in Cc1ccccc1”, the fluorescence lifetime was 6 ns.
Turning to `C[Si](C)(C)C#Cc1cccc2ccccc12`, the fluorescence lifetime (in C1CCCCC1) was determined as 9 ns.
As for `CCC(=O)c1ccc2cc(N(C)C)ccc2c1`, the fluorescence lifetime is 1.6 ns (in C1CCCCC1); 3.58 ns (in C1CCOC1); 3.96 ns (in CC#N); 0.29 ns (in CCCCCC); 3.65 ns (in CCO); 3.85 ns (in CN(C)C=O). Moreover, the fluorescence lifetime is 3.04 ns (in CO); 3.12 ns (in CS(C)=O); 2.33 ns (in Cc1ccccc1); 3.09 ns (in ClC(Cl)Cl); 3.44 ns (in ClCCl); 2.1 ns (in O). The fluorescence lifetime is 3.8 ns (in OCC(O)CO) and 3.3 ns (in c1ccccc1).
Compound `CCCCC(CC)COc1ccc2nc(-c3ccc(-c4ccccc4)s3)sc2c1` (stereo not given) gave a fluorescence lifetime (in ClCCl) of 1.14 ns.
